In ChEMBL document CHEMBL1201862, “PubChem BioAssay data set” (2004):
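Protocol summary: plate cells (96-well), add compound at 5 concentrations, incubate 48 h, interpolate endpoints linearly. Abbreviation: GI50, concentration required for 50% inhibition of growth.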 Calls of active or inactive are those of the source. No stated cut-off is given here; in the data, active = GI50 up to about 1.1 µM and inactive = higher.

How the values were obtained:
Test in all cases: inhibition of tumour cell growth, NCI panel, 48 h
HOP-18 = test system: HOP-18
SNB-78 = test system: SNB-78
DMS-114 = test system: DMS-114
DMS-273 = test system: DMS-273
XF498 = test system: XF498
LXFL 529 = test system: LXFL 529
M19-MEL = test system: M19-MEL
KM-20L2 = test system: KM-20L2
RXF 631 = test system: RXF 631

Structure (SMILES)	GI50 (HOP-18)	GI50 (SNB-78)	GI50 (DMS-114)	GI50 (DMS-273)	GI50 (XF498)	GI50 (LXFL 529)	GI50 (M19-MEL)	GI50 (KM-20L2)	GI50 (RXF 631)
COc1ccc(N2C(=O)C3c4[nH]c5ccccc5c4C4CC(C)(C)CC(C)(C)C4C3C2=O)cc1 (centres undefined)	16.7 µM (inactive)	21.4 µM (inactive)	27.2 µM (inactive)	11 µM (inactive)	17.6 µM (inactive)	13.3 µM (inactive)	15.1 µM (inactive)	29.3 µM (inactive)	–
COC(=O)C(Br)C1CCc2ccccc21 (centres undefined)	65.3 µM (inactive)	–	> 100 µM (inactive)	> 100 µM (inactive)	–	> 100 µM (inactive)	> 100 µM (inactive)	> 100 µM (inactive)	> 100 µM (inactive)
Cc1nnc2c3nnc(C)n3c3ccccc3n12	–	> 100 µM (inactive)	> 100 µM (inactive)	> 100 µM (inactive)	> 100 µM (inactive)	> 100 µM (inactive)	–	> 100 µM (inactive)	–
CCCCCCCCCCCCCC(=O)NCO	> 100 µM (inactive)	> 100 µM (inactive)	> 100 µM (inactive)	–	> 100 µM (inactive)	> 100 µM (inactive)	> 100 µM (inactive)	> 100 µM (inactive)	> 100 µM (inactive)
CCCP1(=O)C=C(C)C(=C(Cl)Cl)C(C)=C1 (centres undefined)	> 100 µM (inactive)	57.3 µM (inactive)	36.1 µM (inactive)	–	–	30.1 µM (inactive)	47.9 µM (inactive)	18.3 µM (inactive)	–
CC/C=C\C/C=C\C1CC(=O)NCCCNCCCCN1 (centres undefined)	–	> 100 µM (inactive)	> 100 µM (inactive)	> 100 µM (inactive)	–	> 100 µM (inactive)	> 100 µM (inactive)	> 100 µM (inactive)	–
CC(C)C(=O)NC(=S)Nc1ccc([N+](=O)[O-])cc1C#N	> 100 µM (inactive)	> 100 µM (inactive)	> 100 µM (inactive)	> 100 µM (inactive)	> 100 µM (inactive)	> 100 µM (inactive)	> 100 µM (inactive)	> 100 µM (inactive)	99.1 µM (inactive)
Brc1ccc(C[P+]2(c3ccccc3)CCCCC2)cc1.[O-][Cl+3]([O-])([O-])[O-]	> 100 µM (inactive)	25.2 µM (inactive)	39.5 µM (inactive)	37.7 µM (inactive)	< 0.01 µM (active)	25.1 µM (inactive)	25.4 µM (inactive)	61.2 µM (inactive)	–
N#CCCN(c1ccc(/C=N/c2ccc(C(=O)O)cc2)cc1)S(=O)(=O)c1ccccc1	> 100 µM (inactive)	> 100 µM (inactive)	> 100 µM (inactive)	> 100 µM (inactive)	> 100 µM (inactive)	> 100 µM (inactive)	> 100 µM (inactive)	> 100 µM (inactive)	–
O=CC[C@H]1C(=O)C[C@@H]2CCC[C@@H]21	–	> 100 µM (inactive)	–	–	> 100 µM (inactive)	48 µM (inactive)	56.2 µM (inactive)	–	–
c1cnc2c(c1)-n1cccc1C1(CCSCC1)NN2	26 µM (inactive)	–	–	> 100 µM (inactive)	> 100 µM (inactive)	–	48.5 µM (inactive)	–	–
O=C1/C(=C/c2ccc(Cl)cc2)COc2ccc(Br)cc21	11.6 µM (inactive)	> 100 µM (inactive)	> 100 µM (inactive)	> 100 µM (inactive)	69 µM (inactive)	> 100 µM (inactive)	> 100 µM (inactive)	> 100 µM (inactive)	> 100 µM (inactive)
CCOC(=O)/N=c1/nc(N(C)C)ss1	> 100 µM (inactive)	> 100 µM (inactive)	> 100 µM (inactive)	> 100 µM (inactive)	> 100 µM (inactive)	> 100 µM (inactive)	–	> 100 µM (inactive)	> 100 µM (inactive)
CCCCCCCCCCCCCC(=O)OCC(C[As](=O)(O)O)OC(=O)CCCCCCCCCCCCC (centres undefined)	> 100 µM (inactive)	> 100 µM (inactive)	74 µM (inactive)	> 100 µM (inactive)	> 100 µM (inactive)	> 100 µM (inactive)	–	> 100 µM (inactive)	> 100 µM (inactive)
Cc1c(Cl)ccc2c1NC(=O)C2(O)C(C(=O)c1ccccc1)c1ccccc1 (centres undefined)	52.4 µM (inactive)	> 100 µM (inactive)	21.9 µM (inactive)	51.5 µM (inactive)	32.7 µM (inactive)	57.3 µM (inactive)	14.7 µM (inactive)	46 µM (inactive)	62.2 µM (inactive)
COc1c(C)n(CCO)ccc1=O	–	> 100 µM (inactive)	> 100 µM (inactive)	> 100 µM (inactive)	> 100 µM (inactive)	> 100 µM (inactive)	> 100 µM (inactive)	> 100 µM (inactive)	> 100 µM (inactive)
C#C[C@@H](CCCC)OC(=O)N[C@H](C)c1ccccc1	> 100 µM (inactive)	94.6 µM (inactive)	25.1 µM (inactive)	37.2 µM (inactive)	66.8 µM (inactive)	43.1 µM (inactive)	38.5 µM (inactive)	51.8 µM (inactive)	45.6 µM (inactive)
NC(=O)CCC(NC(=O)C(F)(F)F)C(=O)O (centres undefined)	> 100 µM (inactive)	> 100 µM (inactive)	> 100 µM (inactive)	> 100 µM (inactive)	> 100 µM (inactive)	> 100 µM (inactive)	> 100 µM (inactive)	> 100 µM (inactive)	–
COC(=O)C1CCc2nnc(-c3cccnc3)n21 (centres undefined)	> 100 µM (inactive)	> 100 µM (inactive)	> 100 µM (inactive)	> 100 µM (inactive)	–	> 100 µM (inactive)	> 100 µM (inactive)	> 100 µM (inactive)	> 100 µM (inactive)
COC(=O)CC(NC(=O)OCc1ccccc1)C(C(=O)OCc1ccccc1)C(C)(OC)OC (centres undefined)	–	–	22.8 µM (inactive)	33.3 µM (inactive)	14.1 µM (inactive)	5.69 µM (inactive)	27.7 µM (inactive)	45.4 µM (inactive)	–
CN1CC[C@@H](c2c(O)cc(O)c3c(=O)cc(-c4ccccc4Cl)oc23)[C@@H](O)C1	0.0562 µM (active)	0.213 µM (active)	0.113 µM (active)	0.109 µM (active)	0.149 µM (active)	0.124 µM (active)	–	0.174 µM (active)	–
Cc1ccc(NC(=O)C(=O)Cc2cccc[n+]2[O-])cc1C	> 100 µM (inactive)	> 100 µM (inactive)	> 100 µM (inactive)	–	> 100 µM (inactive)	> 100 µM (inactive)	> 100 µM (inactive)	> 100 µM (inactive)	–
N#CCC(=O)Nc1cccc(C(F)(F)F)c1	29.2 µM (inactive)	> 100 µM (inactive)	–	> 100 µM (inactive)	> 100 µM (inactive)	> 100 µM (inactive)	> 100 µM (inactive)	> 100 µM (inactive)	> 100 µM (inactive)
CC(=O)Nc1ccc(S(=O)(=O)N/N=C(\C)CN2C(=O)c3ccccc3C2=O)cc1	> 100 µM (inactive)	> 100 µM (inactive)	–	> 100 µM (inactive)	–	> 100 µM (inactive)	> 100 µM (inactive)	> 100 µM (inactive)	–
CCOC(=O)COc1ccc(OCC(=O)OCC)c2c1C(=O)CCCC2=O	> 100 µM (inactive)	–	> 100 µM (inactive)	> 100 µM (inactive)	> 100 µM (inactive)	> 100 µM (inactive)	> 100 µM (inactive)	> 100 µM (inactive)	–
CC(=O)NNc1nc(C)c(C(=O)/C=C/c2ccc(/C=C/C(=O)c3sc(NNC(C)=O)nc3C)cc2)s1	–	> 100 µM (inactive)	> 100 µM (inactive)	> 100 µM (inactive)	> 100 µM (inactive)	> 100 µM (inactive)	> 100 µM (inactive)	–	> 100 µM (inactive)
